# Results taken from patent US20180161386A1, “PHARMACEUTICAL COMPOSITION FOR TREATMENT OF DEPRESSION AND PREPARATION METHOD THEREOF” (THISHERB HEALTH PTY LTD, priority 2015, published 2018).
# Counter-ions that a name gives are not always drawn.
# What was measured:
# mice [1] = assay: mouse-tail suspension test; type: in vivo
# Text: (§1) 1.1 Drug testing and reagents: The capsules pharmaceutical compositions for the treatment of depression in form of obtained in Example 2 compared with fluoxetine hydrochloride. 1.2 Animals: 20 male and 20 female mice provided by the Experimental Animal Center; average body mass of 18-22 g. 1.3 Instruments: Mouse-tail suspension device (a wooden board of about 1 meter in length, fixed onto a desktop with a horizontal distance of about 15 cm), swimming model device (a glass tank with a height of 30 cm, a diameter of 14 cm, a water depth of 10 cm, and temperature of 25° C.), and homemade open box. 1.4 Grouping: The mice were fed for one week, during which time the mice feed and drink freely. The mice were randomly divided into four groups of control group, depression capsule low-dose group (hereinafter referred to as the low-dose group), depression capsule high-dose group (hereinafter referred to as the high-dose group), the positive groups, 10 mice per group. […]
# The mouse was suspended by its tail so that the tail was adhered (1 cm from the tail end of the mouse) to the horizontal plank of wooden board by tape with its head about 5 cm above the desktop. […] The test was performed in 1 h after last drug administration and the time of the mouse being immobile within last 4 min for 6 min period was recorded.
# mice [2] = assay: opening test (independent activity, open box); type: in vivo, mouse
# Text: as §1
# A wooden box was provided with 36 cm×36 cm×27 cm, the bottom of which is divided into 25 squares. The test was performed in 1 h after last drug administration, and the number of the mouse crossing the grids and vertical climbing within last 3 min for 5 min period was recorded.
# mice [3] = assay: mouse forced swimming test; type: in vivo
# Text: 1.1 Drug testing and reagents: The capsules pharmaceutical compositions for the treatment of depression in form of obtained in Example 2 compared with fluoxetine hydrochloride. 1.2 Animals: 20 male and 20 female mice provided by the Experimental Animal Center; average body mass of 18-22 g. 1.3 Instruments: Mouse-tail suspension device (a wooden board of about 1 meter in length, fixed onto a desktop with a horizontal distance of about 15 cm), swimming model device (a glass tank with a height of 30 cm, a diameter of 14 cm, a water depth of 10 cm, and temperature of 25° C.), and homemade open box. 1.4 Grouping: The mice were fed for one week, during which time the mice feed and drink freely. The mice were randomly divided into four groups of control group, depression capsule low-dose group (hereinafter referred to as the low-dose group), depression capsule high-dose group (hereinafter referred to as the high-dose group), the positive groups, 10 mice per group. 1.5 Drug administration: The control group was given saline daily at 0.2 ml/10 g; the positive control group was given fluoxetine hydrochloride 2.4 mg/kg; the low-dose group was given depression capsules 1.05 g/kg; and the high-dose group was given depression capsules 4.20 g/kg. The route of administration was directly into the stomach.
# 1.6.2 Mouse forced swimming test: Refer to method by Prosolt et al. […]
# [4] = positive group 2.4 mg/kg, P<0.01
structure (smiles),measurement,setting,value
CNCCC(Oc1ccc(C(F)(F)F)cc1)c1ccccc1 (stereo not drawn) [fluoxetine hydrochloride],Immobile time in the mouse-tail suspension test,"mice [1]; mice, positive control group 0.0024 g/kg (2.4 mg/kg), directly into the stomach, 1 h after last administration, last 4 min of 6 min, x ± s, n = 10",73 s
same,effect on immobile time in mouse-tail suspension test compared with the control group,mice [1]; [4],highly significant difference
same,the number of squares crossed by mouse,"mice [2]; mice, positive control group 0.0024 g/kg (2.4 mg/kg), directly into the stomach, 1 h after last administration, last 3 min of 5 min, ±s, n = 10",43.9 ± 13.3
same,effect on independent activity in the opening test compared with the control group,"mice [2]; positive group 2.4 mg/kg, P>0.05",no significant difference
same,Immobile time in mouse forced swimming test,"mice [3]; mice, positive control group 0.0024 g/kg (2.4 mg/kg), directly into the stomach, 1 h after last administration, last 4 min of 6 min, water 25° C., x ± s, n = 10",83.5 s
same,effect on immobile time in mouse forced swimming test compared with the control group,mice [3]; [4],highly significant difference
